From patent US7560454B2, “Condensed azepines as vasopressin agonists” (Vantia Limited, priority 2000, dated 2009)

Tested on: Brattleboro rat
Assay: inhibition of urine output in Brattleboro rats
Format: in vivo
Conditions: 1 mg/kg p.o. in methylcellulose, vs control animals
Protocol: The Brattleboro rat is a recognised model for vasopressin deficiency (for a review see F D Grant, “Genetic models of vasopressin deficiency”, Exp. Physiol. 85, 203S-209S, 2000). […] Compounds of the invention were administered to Brattleboro rats (0.1-10 mg/kg p.o. in methylcellulose. Urine was collected hourly and volumes were compared with control animals. Animals had free access to food and water throughout the experiment. Representative results are given in the Table. Results for Desmopressin are given for comparison.

## Cc1cc(C(=O)N2CCCCc3ccccc32)ccc1CNC(=O)N1CCC[C@H]1C(=O)N(C)C [Example 1, 1-(2-Methyl-4-(2,3,4,5-tetrahydro-1-benzazepin-1-ylcarbonyl)benzylcarbamoyl)-L-proline-N,N-dimethylamide]
  % inhibition of urine output (at 1 hour): 82%
